# Paper PMC4658336, “Identification and activity of inhibitors of the essential nematode-specific metalloprotease DPY-31” (Bioorganic & Medicinal Chemistry Letters, 2015)
# Where a SMILES comes first, the peptide text is derived from it.
# Experiments:
# crayfish astacin = test system: crayfish astacin; parameters: method as in PMID 8756323; conditions: cited from earlier work
# [1] = target: T1, recombinant DPY-31 from T. circumcincta (Teladorsagia circumcincta, UniProt A0A0C5PRQ1); assay: rDPY-31 absorbance assay (astacin assay, Suc-Ala-Ala-Ala-pNA substrate); assay type: biochemical; conditions: T. circumcincta enzyme; species not given; read-out: IC50 rDPY-31 (in vitro absorbance assay)
# T1 construct: made in house; host or cells: E. coli (inferred from the codon optimisation and the pET28a(+) vector)
# Source text: (§1) In total, 104 compounds were screened against recombinant DPY-31 from both the human parasite B. malayi as well as the sheep GI parasite T. circumcincta using an absorbance assay.[(i)], [10] […] This may be due to the extremely slow binding kinetics of these inhibitors.[17]
# (§2) The 684bp and 675bp sequences encoding the astacin domains of T. circumcincta DPY-31, and B. malayi DPY-31, were codon-optimised for E. coli by GeneArt (Life Technologies), and cloned into vector pMA-T. These plasmids were then inserted into the pET28a(+) vector, expression of the encoded proteins was induced and the resulting proteins were purified following the methods described previously. Zinc metalloprotease assays were performed to determine the activity of the recombinant DPY-31 proteins from these nematode species, using the previously described method.^18
# (§3) An astacin assay was performed to determine the inhibitory activity of all compounds against recombinant DPY-31 from the two nematode species. Briefly, 150 µg/ml of recombinant enzyme was incubated with 0.1 mM ZnCl2 and various concentrations (5 µM to 400 µM) of compound, and the volume was made up to a total of 100 µl with 50 mM NaPO4, pH 8.0 buffer. […] Absorbance was measured on a plate reader at 405 nm. […]
# [2] = target: T2, recombinant DPY-31 from B. malayi (Brugia malayi, UniProt A8Q2D1); assay: as above; assay type: biochemical; conditions: ±standard error; 3 h pre-incubation, 37 °C, pH 8.0; read-out: pIC50 rDPY-31 B. malayi (converted)
# T2 construct: made in house; host or cells: E. coli (inferred from the codon optimisation and the pET28a(+) vector)
# Source text: as §1, §2, §3
# [3] = test system: T. circumcincta dpy-31 transgenically-rescued C. elegans dpy-31 mutant TP224; assay: Phenotypic screening against transgenic rescue strain TP224; assay type: in vivo, Caenorhabditis elegans; conditions: for phenotype induced: TP224, 96 well plate, 3 days, 50 μM to 2 mM
# Experimental: (§4) These compounds were tested against three strains: free-living wild-type C. elegans N2, the T. circumcincta dpy-31 transgenically-rescued C. elegans dpy-31 mutant TP224, and parasitic T. circumcincta (Fig. 4). Phenotypes were evaluated in 96 well plate format over the course of 3 days using concentrations ranging from 50 μM to 2 mM. […] The similarity of these effects between wild-type C. elegans, the mutant strain, and T. circumcincta reinforces the conserved nature of this metalloprotease.
# Compounds 8 and 9 were screened against C. elegans N2 or TP224 L4s at 100, 250 and 1000 µM, using 96-well plates. A single L4 was placed into each of the wells in a total volume of 100 µl, made up of compound, M9 buffer and 5 µl 10x concentrated OP50. The compound concentrations were tested in duplicate for each compound. The plates were sealed with gas-permeable covers and incubated at 20 °C for 3 days, with the effects on the phenotypes recorded daily. Representative worm images were taken as described in section 5.1.
# [4] = test system: parasitic T. circumcincta; assay: Phenotypic screening against T. circumcincta L1s and L3s; assay type: in vivo, Teladorsagia circumcincta; conditions: for phenotype induced: T. circumcincta, 96 well plate, 50 μM to 2 mM
# Experimental: as §4
# T. circumcincta L1s or exsheathed L3s were incubated with compounds 8 and 9 at 100, 500 and 1000 µM. 10-20 L1s were incubated per well of a 96-well plate, each well containing compound, 5 µl 10x concentrated OP50 and EBSS (Earle’s Balanced Salt Solution; Life Technologies) to 100 µl, and 10-20 L3s were incubated per well of a 96-well plate, each well containing compound and EBSS to 100 µl. Each compound was tested in duplicate for all concentrations. The plates were sealed with gas-permeable covers and incubated at 26 °C (L1s) or 40 °C (L3s) at 100 rpm for 7-8 days and any observations on development were recorded. Representative worm images were taken as described in section 5.1.
# [5] = test system: free-living wild-type C. elegans N2; assay: Phenotypic screening against C. elegans N2 larvae; assay type: in vivo, Caenorhabditis elegans; conditions: for phenotype induced: C. elegans N2, 96 well plate, 3 days, 50 μM to 2 mM
# Experimental: as §4
# Compounds 8 and 9 were screened against C. elegans N2 L4s using 96-well plates. A single L4 was placed into each well in a total volume of 100 µL, made up of compound, M9 buffer and 5 µl 10x concentrated food (E. coli strain OP50), and incubated at 20 °C for 3 days, with the effects on the phenotypes recorded daily. The compounds were screened in duplicate at concentrations ranging from 50 µM to 2 mM. Actinonin (100 µM) was used as a positive control.^18 Representative offspring were transferred onto 2% agarose/0.01% azide pads on slides and viewed with a Zeiss Axioskop2 microscope. Images were taken using an AxioCam camera and Axiovision software.
# T1 sequence (A0A0C5PRQ1 151-614): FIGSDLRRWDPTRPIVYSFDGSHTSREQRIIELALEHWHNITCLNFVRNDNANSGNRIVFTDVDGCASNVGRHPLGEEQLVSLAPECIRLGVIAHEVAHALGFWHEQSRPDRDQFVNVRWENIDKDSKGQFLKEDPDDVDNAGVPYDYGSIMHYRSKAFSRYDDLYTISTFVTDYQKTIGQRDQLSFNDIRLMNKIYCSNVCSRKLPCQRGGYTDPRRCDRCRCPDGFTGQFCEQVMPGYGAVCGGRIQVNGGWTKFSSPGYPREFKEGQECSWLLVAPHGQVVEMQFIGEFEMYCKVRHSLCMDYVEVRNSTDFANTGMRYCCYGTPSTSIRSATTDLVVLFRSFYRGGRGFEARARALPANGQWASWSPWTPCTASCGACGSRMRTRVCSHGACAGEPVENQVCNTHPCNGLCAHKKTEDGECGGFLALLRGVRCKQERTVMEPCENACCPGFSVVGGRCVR
# T2 sequence (A8Q2D1 211-410): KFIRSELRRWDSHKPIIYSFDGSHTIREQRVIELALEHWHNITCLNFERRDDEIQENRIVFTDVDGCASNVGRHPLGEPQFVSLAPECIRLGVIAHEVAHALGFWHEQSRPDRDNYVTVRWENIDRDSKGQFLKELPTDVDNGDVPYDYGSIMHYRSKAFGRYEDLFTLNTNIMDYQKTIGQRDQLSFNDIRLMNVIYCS
Structure (SMILES),phenotype induced [3],phenotype induced [4],phenotype induced [5],other results
COC(=O)C1CCCN1C(=O)C(C)CP(=O)(O)C(Cc1ccccc1)NC(=O)C(CCCCN)NC(=O)C1CCCN1C(=O)OCc1ccccc1 (stereo not drawn) [Compound 1],,,,inhibition of crayfish astacin (crayfish astacin): mid-μM inhibitor; IC50 [1]: > 500 µM
"CNC(=O)[C@@H](NC(=O)[C@H](CC(C)C)[C@H](O)C(=O)NO)C(C)(C)C [Compound 3, marimastat]",,,,IC50 [2]: 200 µM
C[C@H](NC(=O)[C@@H]1CCCN1C(=O)OC(C)(C)C)C(=O)N[C@@H](Cc1ccccc1)C(=O)NO [Compound 8] (HELM PEPTIDE1{[CC(C)(C)OC(=O)[*:2]].P.A.F.[ON[*:1]]}$$$$V2.0),induce the Dpy phenotype,induce the Dpy phenotype,induce the Dpy phenotype,"phenotype observed (Figure 4d) ([3]; L1 TP224, 100 μM): Dpy L1 phenotype; phenotype observed (Figure 4b) ([5]; L1 C. elegans (N2), 50 μM): Dpy phenotype"
C[C@H](NC(=O)[C@@H]1CCCN1C(=O)OCC1c2ccccc2-c2ccccc21)C(=O)N[C@@H](Cc1ccccc1)C(=O)NO [Compound 9] (HELM PEPTIDE1{[O=C(OCC1c2ccccc2-c2ccccc21)[*:2]].P.A.F.[ON[*:1]]}$$$$V2.0),induce the Dpy phenotype,induce the Dpy phenotype,induce the Dpy phenotype,"phenotype observed (Figure 4f) ([4]; T. circumcincta L3, 500 μM): Dpy phenotype"
